Several values for one entry are separate records, joined by “and”; a condition that tells them apart may be missing. Identical values can stand only once.
Assays:
Test in all cases: radiometric filter-binding kinase assay, Kinase HotSpot
Conditions in all cases: compound 0.5 µM; ATP 10 µM
IKBKB (human) = IKBKB (human) (UniProt O14920)
MAPKAPK5 (human) = MAPKAPK5 (human) (UniProt Q8IW41)
HIPK2 (human) = HIPK2 (human) (UniProt Q9H2X6)
NTRK1 (human) = NTRK1 (human) (UniProt P04629)
IGF1R (human) = IGF1R (human) (UniProt P08069)
PDGFRB (human) = PDGFRB (human) (UniProt P09619)
EPHA8 (human) = EPHA8 (human) (UniProt P29322)
Chain of EPHA8 (human) (P29322 whole entry, looked up): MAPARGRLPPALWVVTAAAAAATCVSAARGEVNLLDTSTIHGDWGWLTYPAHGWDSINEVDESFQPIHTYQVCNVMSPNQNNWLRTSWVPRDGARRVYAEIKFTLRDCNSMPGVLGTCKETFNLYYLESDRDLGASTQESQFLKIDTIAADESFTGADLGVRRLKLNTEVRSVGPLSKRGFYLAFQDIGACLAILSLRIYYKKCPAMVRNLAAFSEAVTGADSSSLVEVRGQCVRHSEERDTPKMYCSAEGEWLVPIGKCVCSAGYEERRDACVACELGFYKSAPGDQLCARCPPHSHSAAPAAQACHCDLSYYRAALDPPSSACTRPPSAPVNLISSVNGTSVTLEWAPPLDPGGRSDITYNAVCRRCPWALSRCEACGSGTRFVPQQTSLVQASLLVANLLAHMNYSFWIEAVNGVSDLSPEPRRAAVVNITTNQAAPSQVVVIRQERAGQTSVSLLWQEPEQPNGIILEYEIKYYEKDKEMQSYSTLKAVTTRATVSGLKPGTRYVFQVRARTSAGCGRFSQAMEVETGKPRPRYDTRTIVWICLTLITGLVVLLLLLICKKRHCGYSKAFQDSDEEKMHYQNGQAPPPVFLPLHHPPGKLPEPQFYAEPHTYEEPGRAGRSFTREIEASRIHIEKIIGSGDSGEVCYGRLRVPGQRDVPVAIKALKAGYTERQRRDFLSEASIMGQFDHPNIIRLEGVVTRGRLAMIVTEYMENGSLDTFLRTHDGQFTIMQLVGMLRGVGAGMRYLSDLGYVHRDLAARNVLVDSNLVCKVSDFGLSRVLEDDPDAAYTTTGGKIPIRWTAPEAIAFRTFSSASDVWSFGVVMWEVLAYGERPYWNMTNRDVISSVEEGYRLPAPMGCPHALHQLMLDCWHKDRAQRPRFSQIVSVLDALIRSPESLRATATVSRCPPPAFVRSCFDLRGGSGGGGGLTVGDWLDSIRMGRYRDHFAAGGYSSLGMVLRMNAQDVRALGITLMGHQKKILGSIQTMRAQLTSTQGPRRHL

FES (human) = FES (human) (UniProt P07332)
LYN (human) = LYN (human) (UniProt P07948)
STK24 (human) = STK24 (human) (UniProt Q9Y6E0)
CAMK1G (human) = CAMK1G (human) (UniProt Q96NX5)
CDK2 CCNE1 (human) = CDK2 CCNE1 (human) (UniProt P24941+P24864)
STK16 (human) = STK16 (human) (UniProt O75716)
STK4 (human) = STK4 (human) (UniProt Q13043)
ZAP70 (human) = ZAP70 (human) (UniProt P43403)
TSSK1B (human) = TSSK1B (human) (UniProt Q9BXA7)
MAPK12 (human) = MAPK12 (human) (UniProt P53778)
FYN (human) = FYN (human) (UniProt P06241)
EPHB3 (human) = EPHB3 (human) (UniProt P54753)
RPS6KB2 (human) = RPS6KB2 (human) (UniProt Q9UBS0)
Chain of RPS6KB2 (human) (Q9UBS0 whole entry, looked up): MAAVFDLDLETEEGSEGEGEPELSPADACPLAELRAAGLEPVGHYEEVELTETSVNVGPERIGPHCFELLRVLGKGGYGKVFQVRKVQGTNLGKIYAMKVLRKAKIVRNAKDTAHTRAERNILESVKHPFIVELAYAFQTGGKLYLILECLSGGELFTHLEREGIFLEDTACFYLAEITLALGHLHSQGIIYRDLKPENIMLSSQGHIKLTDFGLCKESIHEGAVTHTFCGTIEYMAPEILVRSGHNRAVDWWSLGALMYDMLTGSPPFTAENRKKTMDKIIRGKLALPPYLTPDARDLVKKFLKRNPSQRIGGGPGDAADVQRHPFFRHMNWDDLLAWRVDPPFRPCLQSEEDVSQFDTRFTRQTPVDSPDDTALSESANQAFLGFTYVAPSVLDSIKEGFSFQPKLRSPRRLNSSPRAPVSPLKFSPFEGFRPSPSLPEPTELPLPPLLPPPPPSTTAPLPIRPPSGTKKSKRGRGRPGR

FER (human) = FER (human) (UniProt P16591)
Chain of FER (human) (P16591 whole entry, looked up): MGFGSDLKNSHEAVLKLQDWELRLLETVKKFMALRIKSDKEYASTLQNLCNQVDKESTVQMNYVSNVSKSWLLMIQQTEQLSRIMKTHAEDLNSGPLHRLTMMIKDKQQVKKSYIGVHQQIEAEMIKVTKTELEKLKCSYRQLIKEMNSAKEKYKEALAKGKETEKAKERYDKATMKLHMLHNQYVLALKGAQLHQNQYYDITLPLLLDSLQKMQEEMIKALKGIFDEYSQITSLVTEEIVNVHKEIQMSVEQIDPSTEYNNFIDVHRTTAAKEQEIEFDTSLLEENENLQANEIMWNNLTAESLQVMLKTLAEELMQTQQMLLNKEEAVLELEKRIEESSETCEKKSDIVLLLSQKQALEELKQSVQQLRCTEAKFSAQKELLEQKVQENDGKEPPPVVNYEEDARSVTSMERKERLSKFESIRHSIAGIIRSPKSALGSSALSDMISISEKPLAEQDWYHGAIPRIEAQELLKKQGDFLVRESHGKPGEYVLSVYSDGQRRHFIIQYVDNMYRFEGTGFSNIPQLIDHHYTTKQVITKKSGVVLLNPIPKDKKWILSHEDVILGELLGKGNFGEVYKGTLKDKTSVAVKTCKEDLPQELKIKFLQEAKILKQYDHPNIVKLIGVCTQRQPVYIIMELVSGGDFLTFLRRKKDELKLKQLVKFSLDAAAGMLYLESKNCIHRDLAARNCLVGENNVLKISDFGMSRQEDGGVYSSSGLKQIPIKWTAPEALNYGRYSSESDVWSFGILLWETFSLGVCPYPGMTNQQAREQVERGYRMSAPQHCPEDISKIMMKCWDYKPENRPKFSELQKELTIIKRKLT

CSNK1G3 (human) = CSNK1G3 (human) (UniProt Q9Y6M4)
TTK (human) = TTK (human) (UniProt P33981)
MAP3K3 (human) = MAP3K3 (human) (UniProt Q99759)
FGFR3 (human) = FGFR3 (human) (UniProt P22607)
CDK2 CCNA2 (human) = CDK2 CCNA2 (human) (UniProt P24941+P20248)
WEE1 (human) = WEE1 (human) (UniProt P30291)
Chain of WEE1 (human) (P30291 whole entry, looked up): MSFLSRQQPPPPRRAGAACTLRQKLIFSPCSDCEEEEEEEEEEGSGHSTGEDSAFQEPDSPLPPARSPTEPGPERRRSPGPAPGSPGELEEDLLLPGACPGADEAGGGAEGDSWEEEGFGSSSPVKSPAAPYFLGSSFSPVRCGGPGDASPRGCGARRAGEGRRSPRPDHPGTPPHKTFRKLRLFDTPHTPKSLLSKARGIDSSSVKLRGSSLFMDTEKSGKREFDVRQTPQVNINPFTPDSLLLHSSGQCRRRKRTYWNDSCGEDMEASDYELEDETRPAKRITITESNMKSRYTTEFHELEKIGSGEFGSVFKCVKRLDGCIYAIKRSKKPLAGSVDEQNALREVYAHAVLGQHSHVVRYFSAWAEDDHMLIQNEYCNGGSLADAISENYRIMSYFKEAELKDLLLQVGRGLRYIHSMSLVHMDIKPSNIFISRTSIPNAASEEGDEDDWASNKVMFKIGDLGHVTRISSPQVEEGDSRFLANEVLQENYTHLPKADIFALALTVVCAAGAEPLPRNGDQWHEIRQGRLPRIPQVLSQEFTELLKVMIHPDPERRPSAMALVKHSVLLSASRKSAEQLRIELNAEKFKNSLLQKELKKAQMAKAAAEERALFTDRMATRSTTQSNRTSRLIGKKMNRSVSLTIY

CAMK2D (human) = CAMK2D (human) (UniProt Q13557)
MAP4K4 (human) = MAP4K4 (human) (UniProt O95819)
RAF1 (human) = RAF1 (human) (UniProt P04049)
TBK1 (human) = TBK1 (human) (UniProt Q9UHD2)
PLK3 (human) = PLK3 (human) (UniProt Q9H4B4)
EPHA5 (human) = EPHA5 (human) (UniProt P54756)
CDC42BPB (human) = CDC42BPB (human) (UniProt Q9Y5S2)
CSNK1D (human) = CSNK1D (human) (UniProt P48730)
CAMK2B (human) = CAMK2B (human) (UniProt Q13554)
Chain of CAMK2B (human) (Q13554 whole entry, looked up): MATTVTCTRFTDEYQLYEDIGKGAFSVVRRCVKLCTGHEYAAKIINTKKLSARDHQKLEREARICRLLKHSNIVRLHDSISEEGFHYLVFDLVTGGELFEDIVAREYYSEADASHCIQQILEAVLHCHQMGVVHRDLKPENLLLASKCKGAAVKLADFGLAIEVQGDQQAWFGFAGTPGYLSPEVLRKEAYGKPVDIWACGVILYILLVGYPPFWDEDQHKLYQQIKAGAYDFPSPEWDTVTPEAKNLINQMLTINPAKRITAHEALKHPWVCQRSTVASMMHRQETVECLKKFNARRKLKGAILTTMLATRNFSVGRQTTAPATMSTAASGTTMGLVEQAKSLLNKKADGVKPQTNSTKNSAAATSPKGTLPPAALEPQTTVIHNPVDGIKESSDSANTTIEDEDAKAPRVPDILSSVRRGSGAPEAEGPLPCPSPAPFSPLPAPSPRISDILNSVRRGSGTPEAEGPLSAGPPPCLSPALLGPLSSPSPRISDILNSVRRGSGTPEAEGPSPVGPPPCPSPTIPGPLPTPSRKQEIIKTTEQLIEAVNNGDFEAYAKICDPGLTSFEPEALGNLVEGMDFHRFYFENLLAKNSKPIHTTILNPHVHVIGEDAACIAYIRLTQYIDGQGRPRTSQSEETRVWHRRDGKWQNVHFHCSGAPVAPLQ

CSNK1G1 (human) = CSNK1G1 (human) (UniProt Q9HCP0)
MYLK (human) = MYLK (human) (UniProt Q15746)
CAMK1D (human) = CAMK1D (human) (UniProt Q8IU85)
SGK3 (human) = SGK3 (human) (UniProt Q96BR1)
Chain of SGK3 (human) (Q96BR1 whole entry, looked up): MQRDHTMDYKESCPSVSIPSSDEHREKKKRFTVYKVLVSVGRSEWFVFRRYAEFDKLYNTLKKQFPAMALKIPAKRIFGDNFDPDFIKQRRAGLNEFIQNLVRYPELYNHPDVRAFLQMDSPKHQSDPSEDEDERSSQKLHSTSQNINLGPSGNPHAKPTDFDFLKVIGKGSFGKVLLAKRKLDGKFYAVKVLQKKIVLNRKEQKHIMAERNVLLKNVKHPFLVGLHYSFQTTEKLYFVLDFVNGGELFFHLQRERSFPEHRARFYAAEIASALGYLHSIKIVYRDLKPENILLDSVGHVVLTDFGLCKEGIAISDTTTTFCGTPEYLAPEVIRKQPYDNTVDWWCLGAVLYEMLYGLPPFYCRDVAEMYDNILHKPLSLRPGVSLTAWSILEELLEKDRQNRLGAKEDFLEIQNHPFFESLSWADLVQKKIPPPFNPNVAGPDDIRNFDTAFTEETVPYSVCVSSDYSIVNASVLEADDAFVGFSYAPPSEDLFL

MAPK14 (human) = MAPK14 (human) (UniProt Q16539)

Chain of NTRK1 (human) (P04629 whole entry, looked up): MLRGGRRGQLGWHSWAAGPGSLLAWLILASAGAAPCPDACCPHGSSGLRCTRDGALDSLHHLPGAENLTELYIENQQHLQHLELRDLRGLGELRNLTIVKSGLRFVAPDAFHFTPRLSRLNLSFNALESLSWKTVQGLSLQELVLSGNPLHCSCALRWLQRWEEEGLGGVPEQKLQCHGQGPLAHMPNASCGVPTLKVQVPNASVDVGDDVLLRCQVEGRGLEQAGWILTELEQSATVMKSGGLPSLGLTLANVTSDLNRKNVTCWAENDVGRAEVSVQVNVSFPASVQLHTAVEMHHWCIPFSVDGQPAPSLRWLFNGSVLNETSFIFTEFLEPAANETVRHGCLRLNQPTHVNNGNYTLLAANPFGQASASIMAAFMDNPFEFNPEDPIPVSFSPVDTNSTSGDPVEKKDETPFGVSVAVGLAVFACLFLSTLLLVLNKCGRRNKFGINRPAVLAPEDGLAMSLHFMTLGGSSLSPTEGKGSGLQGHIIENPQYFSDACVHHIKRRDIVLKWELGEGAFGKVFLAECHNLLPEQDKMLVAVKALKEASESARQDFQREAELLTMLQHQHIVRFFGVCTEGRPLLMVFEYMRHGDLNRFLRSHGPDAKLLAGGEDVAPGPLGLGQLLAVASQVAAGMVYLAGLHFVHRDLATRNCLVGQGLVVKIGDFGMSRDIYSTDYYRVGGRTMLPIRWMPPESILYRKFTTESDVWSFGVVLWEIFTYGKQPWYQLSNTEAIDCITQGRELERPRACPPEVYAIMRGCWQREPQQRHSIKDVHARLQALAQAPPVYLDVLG

## CC#CC(=O)Nc1cc2c(Nc3ccc(F)c(Cl)c3)ncnc2cn1
IKBKB (human)
  residual activity: 102%
MAPKAPK5 (human)
  residual activity: 96.3%
HIPK2 (human)
  residual activity: 101%
NTRK1 (human)
  residual activity: 98.5%
IGF1R (human)
  residual activity: 100%
PDGFRB (human)
  residual activity: 103%
EPHA8 (human)
  residual activity: 100%
FES (human)
  residual activity: 99.4%
LYN (human)
  residual activity: 88.3% and 96.1%
STK24 (human)
  residual activity: 107%
CAMK1G (human)
  residual activity: 99.2%
CDK2 CCNE1 (human)
  residual activity: 98.1%
STK16 (human)
  residual activity: 104%
STK4 (human)
  residual activity: 98.7%
ZAP70 (human)
  residual activity: 90.4%
TSSK1B (human)
  residual activity: 104%
MAPK12 (human)
  residual activity: 99.4%
FYN (human)
  residual activity: 95.8%
EPHB3 (human)
  residual activity: 85.4%
RPS6KB2 (human)
  residual activity: 97.2%
FER (human)
  residual activity: 98.2%
CSNK1G3 (human)
  residual activity: 111%
TTK (human)
  residual activity: 104%
MAP3K3 (human)
  residual activity: 107%
FGFR3 (human)
  residual activity: 108%
CDK2 CCNA2 (human)
  residual activity: 97.8%
WEE1 (human)
  residual activity: 93.2%
CAMK2D (human)
  residual activity: 100%
MAP4K4 (human)
  residual activity: 110%
RAF1 (human)
  residual activity: 85.6%
TBK1 (human)
  residual activity: 105%
PLK3 (human)
  residual activity: 100%
EPHA5 (human)
  residual activity: 101%
CDC42BPB (human)
  residual activity: 96.4%
CSNK1D (human)
  residual activity: 99.3%
CAMK2B (human)
  residual activity: 99.6%
CSNK1G1 (human)
  residual activity: 95.5%
MYLK (human)
  residual activity: 98.8%
CAMK1D (human)
  residual activity: 107%
SGK3 (human)
  residual activity: 100%
MAPK14 (human)
  residual activity: 101%

## O=S(=O)(c1cccc2cnccc12)N1CCCNCC1
MAPKAPK5 (human)
  residual activity: 72.6%
NTRK1 (human)
  residual activity: 89.6%
IGF1R (human)
  residual activity: 112%
PDGFRB (human)
  residual activity: 102%
EPHA8 (human)
  residual activity: 106%
FES (human)
  residual activity: 121%
LYN (human)
  residual activity: 102% and 106%
STK24 (human)
  residual activity: 70.2%
CAMK1G (human)
  residual activity: 101%
STK16 (human)
  residual activity: 91.7%
STK4 (human)
  residual activity: 94.8%
ZAP70 (human)
  residual activity: 108%
TSSK1B (human)
  residual activity: 93.5%
MAPK12 (human)
  residual activity: 99.3%
FYN (human)
  residual activity: 106%
EPHB3 (human)
  residual activity: 95.4%
RPS6KB2 (human)
  residual activity: 81.9%
FER (human)
  residual activity: 103%
CSNK1G3 (human)
  residual activity: 85%
TTK (human)
  residual activity: 99.1%
MAP3K3 (human)
  residual activity: 89.3%
FGFR3 (human)
  residual activity: 94.4%
WEE1 (human)
  residual activity: 99.9%
CAMK2D (human)
  residual activity: 98.5%
MAP4K4 (human)
  residual activity: 44.1%
RAF1 (human)
  residual activity: 98.3%
PLK3 (human)
  residual activity: 102%
EPHA5 (human)
  residual activity: 90.5%
CSNK1D (human)
  residual activity: 99.7%
CAMK2B (human)
  residual activity: 93.2%
CSNK1G1 (human)
  residual activity: 89.6%
MYLK (human)
  residual activity: 97.4%
CAMK1D (human)
  residual activity: 91.5%
SGK3 (human)
  residual activity: 91.6%
MAPK14 (human)
  residual activity: 104%

## COc1ccc(COc2ccc(Cc3cnc(N)nc3N)cc2OC)cc1
IKBKB (human)
  residual activity: 99.9%
MAPKAPK5 (human)
  residual activity: 87.5%
HIPK2 (human)
  residual activity: 103%
NTRK1 (human)
  residual activity: 51.3%
IGF1R (human)
  residual activity: 123%
PDGFRB (human)
  residual activity: 98.2%
LYN (human)
  residual activity: 98.1% and 99.9%
STK24 (human)
  residual activity: 93.5%
CAMK1G (human)
  residual activity: 98.3%
STK16 (human)
  residual activity: 106%
STK4 (human)
  residual activity: 106%
ZAP70 (human)
  residual activity: 94.3%
TSSK1B (human)
  residual activity: 95.2%
MAPK12 (human)
  residual activity: 102%
FYN (human)
  residual activity: 102%
EPHB3 (human)
  residual activity: 91.8%
RPS6KB2 (human)
  residual activity: 100%
FER (human)
  residual activity: 93.4%
TTK (human)
  residual activity: 105%
MAP3K3 (human)
  residual activity: 97.8%
FGFR3 (human)
  residual activity: 105%
WEE1 (human)
  residual activity: 90.3%
CAMK2D (human)
  residual activity: 109%
MAP4K4 (human)
  residual activity: 99%
TBK1 (human)
  residual activity: 103%
PLK3 (human)
  residual activity: 95.9%
EPHA5 (human)
  residual activity: 111%
CDC42BPB (human)
  residual activity: 96.9%
CSNK1D (human)
  residual activity: 98.5%
CAMK2B (human)
  residual activity: 100%
CSNK1G1 (human)
  residual activity: 92.7%
MYLK (human)
  residual activity: 95.7%
CAMK1D (human)
  residual activity: 93%
SGK3 (human)
  residual activity: 105%
MAPK14 (human)
  residual activity: 106%

## c1ccc(-c2n[nH]c3c2oc2ccccc23)cc1
IKBKB (human)
  residual activity: 92.2%
MAPKAPK5 (human)
  residual activity: 103%
HIPK2 (human)
  residual activity: 99.6%
NTRK1 (human)
  residual activity: 85.6%
IGF1R (human)
  residual activity: 98.1%
EPHA8 (human)
  residual activity: 102%
FES (human)
  residual activity: 114%
LYN (human)
  residual activity: 102% and 108%
STK24 (human)
  residual activity: 75.3%
CAMK1G (human)
  residual activity: 100%
CDK2 CCNE1 (human)
  residual activity: 95.6%
STK16 (human)
  residual activity: 89.1%
STK4 (human)
  residual activity: 99.8%
ZAP70 (human)
  residual activity: 89%
TSSK1B (human)
  residual activity: 97.2%
MAPK12 (human)
  residual activity: 100%
FYN (human)
  residual activity: 104%
EPHB3 (human)
  residual activity: 84.7%
RPS6KB2 (human)
  residual activity: 99.8%
FER (human)
  residual activity: 103%
CSNK1G3 (human)
  residual activity: 88.5%
TTK (human)
  residual activity: 95.7%
MAP3K3 (human)
  residual activity: 94.7%
FGFR3 (human)
  residual activity: 97.5%
CDK2 CCNA2 (human)
  residual activity: 88.1%
WEE1 (human)
  residual activity: 92.6%
CAMK2D (human)
  residual activity: 94.5%
MAP4K4 (human)
  residual activity: 36.1%
RAF1 (human)
  residual activity: 94.9%
TBK1 (human)
  residual activity: 105%
PLK3 (human)
  residual activity: 99.2%
EPHA5 (human)
  residual activity: 92.1%
CDC42BPB (human)
  residual activity: 99%
CSNK1D (human)
  residual activity: 93.1%
CAMK2B (human)
  residual activity: 101%
CSNK1G1 (human)
  residual activity: 91.6%
MYLK (human)
  residual activity: 86.1%
CAMK1D (human)
  residual activity: 92.9%
SGK3 (human)
  residual activity: 111%
MAPK14 (human)
  residual activity: 102%

## O=c1cc(N2CCOCC2)oc2c1ccc1ccccc12
IKBKB (human)
  residual activity: 105%
MAPKAPK5 (human)
  residual activity: 98.4%
HIPK2 (human)
  residual activity: 105%
NTRK1 (human)
  residual activity: 96.4%
PDGFRB (human)
  residual activity: 111%
EPHA8 (human)
  residual activity: 101%
FES (human)
  residual activity: 100%
LYN (human)
  residual activity: 102% and 104%
STK24 (human)
  residual activity: 103%
CAMK1G (human)
  residual activity: 102%
CDK2 CCNE1 (human)
  residual activity: 119%
STK16 (human)
  residual activity: 99%
STK4 (human)
  residual activity: 99.5%
ZAP70 (human)
  residual activity: 103%
TSSK1B (human)
  residual activity: 101%
MAPK12 (human)
  residual activity: 97.4%
FYN (human)
  residual activity: 113%
EPHB3 (human)
  residual activity: 90%
RPS6KB2 (human)
  residual activity: 99.6%
FER (human)
  residual activity: 91.2%
CSNK1G3 (human)
  residual activity: 98.1%
TTK (human)
  residual activity: 103%
MAP3K3 (human)
  residual activity: 102%
FGFR3 (human)
  residual activity: 98.2%
CDK2 CCNA2 (human)
  residual activity: 100%
WEE1 (human)
  residual activity: 101%
CAMK2D (human)
  residual activity: 99.9%
MAP4K4 (human)
  residual activity: 89.3%
RAF1 (human)
  residual activity: 97.9%
TBK1 (human)
  residual activity: 102%
PLK3 (human)
  residual activity: 64%
EPHA5 (human)
  residual activity: 110%
CDC42BPB (human)
  residual activity: 98.3%
CSNK1D (human)
  residual activity: 97.9%
CAMK2B (human)
  residual activity: 98.1%
CSNK1G1 (human)
  residual activity: 101%
MYLK (human)
  residual activity: 92.3%
CAMK1D (human)
  residual activity: 91.1%
SGK3 (human)
  residual activity: 106%
MAPK14 (human)
  residual activity: 96.7%

From the kinase profiling compilation of Christmann-Franck et al. (2016)
